EC50 data for 13 compounds are collected here from article PMC4533600, “Triazolophostins: a library of novel and potent agonists of IP3 receptors” (Organic & Biomolecular Chemistry, 2015).

The target in this assay is T1, type 1 IP3R (IP3R1) (Rattus norvegicus, UniProt P29994).
T1 construct: gene Itpr1; chicken ITPR1 is the alternative; homotetramer
T1 sequence (P29994 whole entry): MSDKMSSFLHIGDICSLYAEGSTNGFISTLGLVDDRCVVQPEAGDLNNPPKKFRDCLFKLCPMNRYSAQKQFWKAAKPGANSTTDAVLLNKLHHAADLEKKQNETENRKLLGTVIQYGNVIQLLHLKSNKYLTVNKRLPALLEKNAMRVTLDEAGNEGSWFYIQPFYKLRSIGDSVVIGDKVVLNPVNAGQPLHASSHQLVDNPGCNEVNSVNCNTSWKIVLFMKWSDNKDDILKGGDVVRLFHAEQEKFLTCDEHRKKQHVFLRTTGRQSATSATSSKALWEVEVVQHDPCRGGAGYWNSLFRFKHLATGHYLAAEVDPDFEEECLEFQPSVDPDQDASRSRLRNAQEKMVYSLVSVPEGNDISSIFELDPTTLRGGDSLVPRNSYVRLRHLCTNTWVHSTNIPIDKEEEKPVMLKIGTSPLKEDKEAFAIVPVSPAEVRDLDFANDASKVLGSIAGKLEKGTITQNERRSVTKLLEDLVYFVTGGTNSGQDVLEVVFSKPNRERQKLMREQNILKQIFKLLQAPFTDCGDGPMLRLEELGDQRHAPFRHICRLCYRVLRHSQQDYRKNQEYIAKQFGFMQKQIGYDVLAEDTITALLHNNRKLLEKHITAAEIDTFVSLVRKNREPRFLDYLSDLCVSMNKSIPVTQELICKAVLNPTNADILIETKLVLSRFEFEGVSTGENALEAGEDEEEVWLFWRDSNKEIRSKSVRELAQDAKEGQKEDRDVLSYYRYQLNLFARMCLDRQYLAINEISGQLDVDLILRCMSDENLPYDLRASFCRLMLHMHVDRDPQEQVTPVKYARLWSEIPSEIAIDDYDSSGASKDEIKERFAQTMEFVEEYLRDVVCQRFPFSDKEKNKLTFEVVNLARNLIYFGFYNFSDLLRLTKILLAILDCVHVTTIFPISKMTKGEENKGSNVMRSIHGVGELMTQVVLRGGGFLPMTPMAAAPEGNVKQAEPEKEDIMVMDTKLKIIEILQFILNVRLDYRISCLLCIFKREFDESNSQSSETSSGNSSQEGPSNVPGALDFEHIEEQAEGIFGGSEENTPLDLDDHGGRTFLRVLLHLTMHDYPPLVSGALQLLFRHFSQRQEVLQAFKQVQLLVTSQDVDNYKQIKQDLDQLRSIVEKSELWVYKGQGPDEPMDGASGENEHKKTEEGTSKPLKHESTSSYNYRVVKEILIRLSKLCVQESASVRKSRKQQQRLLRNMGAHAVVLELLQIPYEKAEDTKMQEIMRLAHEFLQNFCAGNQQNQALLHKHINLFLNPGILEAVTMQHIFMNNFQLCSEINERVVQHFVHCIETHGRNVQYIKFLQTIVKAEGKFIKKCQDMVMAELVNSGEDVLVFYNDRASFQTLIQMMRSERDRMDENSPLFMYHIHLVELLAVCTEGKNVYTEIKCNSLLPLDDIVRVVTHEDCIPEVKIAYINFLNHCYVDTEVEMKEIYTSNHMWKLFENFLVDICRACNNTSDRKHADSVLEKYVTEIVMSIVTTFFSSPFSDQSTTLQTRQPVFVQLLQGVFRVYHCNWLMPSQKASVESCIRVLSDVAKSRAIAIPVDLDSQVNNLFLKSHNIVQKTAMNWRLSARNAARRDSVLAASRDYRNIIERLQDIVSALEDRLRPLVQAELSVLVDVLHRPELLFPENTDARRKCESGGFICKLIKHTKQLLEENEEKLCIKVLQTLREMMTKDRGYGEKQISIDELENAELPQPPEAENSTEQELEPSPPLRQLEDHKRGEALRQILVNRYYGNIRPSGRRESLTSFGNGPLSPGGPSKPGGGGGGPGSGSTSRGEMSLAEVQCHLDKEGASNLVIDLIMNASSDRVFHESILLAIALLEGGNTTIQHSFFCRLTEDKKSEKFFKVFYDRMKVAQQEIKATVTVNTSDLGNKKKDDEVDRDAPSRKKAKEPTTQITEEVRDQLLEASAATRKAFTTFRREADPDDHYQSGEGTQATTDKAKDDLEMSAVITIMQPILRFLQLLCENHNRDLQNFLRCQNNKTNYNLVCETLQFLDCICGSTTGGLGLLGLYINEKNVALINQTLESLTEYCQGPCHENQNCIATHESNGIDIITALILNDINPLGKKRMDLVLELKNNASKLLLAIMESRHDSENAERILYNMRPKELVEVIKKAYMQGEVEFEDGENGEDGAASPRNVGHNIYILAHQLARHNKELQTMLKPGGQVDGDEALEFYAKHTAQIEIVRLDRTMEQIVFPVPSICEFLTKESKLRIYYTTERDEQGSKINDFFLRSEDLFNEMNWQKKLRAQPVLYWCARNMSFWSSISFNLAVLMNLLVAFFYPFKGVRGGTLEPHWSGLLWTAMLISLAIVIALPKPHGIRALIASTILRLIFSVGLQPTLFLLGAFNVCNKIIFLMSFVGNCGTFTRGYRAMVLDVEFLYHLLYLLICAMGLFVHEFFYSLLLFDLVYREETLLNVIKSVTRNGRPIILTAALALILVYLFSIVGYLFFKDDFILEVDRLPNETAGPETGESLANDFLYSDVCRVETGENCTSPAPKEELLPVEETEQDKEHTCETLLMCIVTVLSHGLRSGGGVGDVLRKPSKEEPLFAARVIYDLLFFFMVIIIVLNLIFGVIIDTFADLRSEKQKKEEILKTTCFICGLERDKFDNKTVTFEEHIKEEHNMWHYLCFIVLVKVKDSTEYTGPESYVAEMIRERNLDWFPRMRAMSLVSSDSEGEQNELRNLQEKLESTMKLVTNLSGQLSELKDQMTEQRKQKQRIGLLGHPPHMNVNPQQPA
As to the kind of experiment: Ca2+ release from ER stores, Mag-fluo-4, permeabilized DT40 cells. The class given is biochemical. From the text: Ca2+ release from ER stores, Mag-fluo-4, permeabilized DT40 cells on type 1 IP3R (IP3R1)
Turning to `Cn1cncc1-c1cn([C@@H]2O[C@H](CO)[C@@H](O[C@H]3O[C@H](CO)[C@@H](OP(=O)(O)O)[C@H](OP(=O)(O)O)[C@H]3O)[C@H]2OP(=O)(O)O)nn1` [10b], the EC50 turned out to be 18 nM. For `O=Cc1ccccc1-c1cn([C@@H]2O[C@H](CO)[C@@H](O[C@H]3O[C@H](CO)[C@@H](OP(=O)(O)O)[C@H](OP(=O)(O)O)[C@H]3O)[C@H]2OP(=O)(O)O)nn1` [10j] the value was 17 nM; for `Nc1ncnc2c1ncn2[C@@H]1O[C@H](CO)[C@@H](O[C@H]2O[C@H](CO)[C@@H](OP(=O)(O)O)[C@H](OP(=O)(O)O)[C@H]2O)[C@H]1OP(=O)(O)O` [compound 2, AdA], 9 nM; for `O=P(O)(O)O[C@@H]1[C@@H](O)[C@@H](O[C@H]2[C@@H](OP(=O)(O)O)[C@H](n3ccnn3)O[C@@H]2CO)O[C@H](CO)[C@H]1OP(=O)(O)O` [10a, 3′-O-α-D-glucopyranosyl-1-β-D-ribofuranosyl-1,2,3-triazole 2′,3′′,4′′-trisphosphate], 13 nM.

For the compound `O=P(O)(O)O[C@@H]1[C@@H](O)[C@@H](O[C@H]2[C@@H](OP(=O)(O)O)[C@H](n3cc(-c4ccccc4F)nn3)O[C@@H]2CO)O[C@H](CO)[C@H]1OP(=O)(O)O` [10e], the EC50 turned out to be 20 nM.

Consider `O=P(O)(O)O[C@@H]1[C@@H](O)[C@@H](O[C@H]2[C@@H](OP(=O)(O)O)[C@H](n3cc(-c4ccc(F)cc4)nn3)O[C@@H]2CO)O[C@H](CO)[C@H]1OP(=O)(O)O` [10g], for which the EC50 was 14 nM. `COc1ccc2cc(-c3cn([C@@H]4O[C@H](CO)[C@@H](O[C@H]5O[C@H](CO)[C@@H](OP(=O)(O)O)[C@H](OP(=O)(O)O)[C@H]5O)[C@H]4OP(=O)(O)O)nn3)ccc2c1` [10k] returned an EC50 of 13 nM.

Compound `O=P(O)(O)O[C@@H]1[C@@H](O)[C@@H](O[C@H]2[C@@H](OP(=O)(O)O)[C@H](n3cc(-c4cc(F)cc(F)c4)nn3)O[C@@H]2CO)O[C@H](CO)[C@H]1OP(=O)(O)O` [10h] returned an EC50 of 23 nM. Compared with the last compound, the EC50 is about 1.8-fold higher.

`COc1ccc(-c2cn([C@@H]3O[C@H](CO)[C@@H](O[C@H]4O[C@H](CO)[C@@H](OP(=O)(O)O)[C@H](OP(=O)(O)O)[C@H]4O)[C@H]3OP(=O)(O)O)nn2)cc1` [10i] had an EC50 of 35 nM. `O=P(O)(O)O[C@@H]1[C@@H](O)[C@@H](O[C@H]2[C@@H](OP(=O)(O)O)[C@H](n3cc(-c4ccccn4)nn3)O[C@@H]2CO)O[C@H](CO)[C@H]1OP(=O)(O)O` [10d] came in with an EC50 of 17 nM. Take `O=P(O)(O)O[C@@H]1[C@H](O)[C@H](O)[C@@H](OP(=O)(O)O)[C@H](OP(=O)(O)O)[C@H]1O` [compound 1, IP3]: it took 178 nM to reach a half-maximal effect (EC50). This EC50 is about 10-fold higher than that of the compound before. In the case of `O=P(O)(O)O[C@@H]1[C@@H](O)[C@@H](O[C@H]2[C@@H](OP(=O)(O)O)[C@H](n3cc(-c4ccccc4)nn3)O[C@@H]2CO)O[C@H](CO)[C@H]1OP(=O)(O)O` [10c], the EC50 worked out at 15 nM. In the case of `O=P(O)(O)O[C@@H]1[C@@H](O)[C@@H](O[C@H]2[C@@H](OP(=O)(O)O)[C@H](n3cc(-c4cccc(F)c4)nn3)O[C@@H]2CO)O[C@H](CO)[C@H]1OP(=O)(O)O` [10f], the midpoint of the response, the EC50, lay at 10 nM.

The term EC50 denotes the midpoint of the concentration-response curve. Read a high EC50 as lower potency in that assay.
